Results from US8221658B2, “Mixed salts of diorganylphosphinic acids and carboxylic acids” (Clariant Finance (BVI) Limited, priority 2007, dated 2012).

Key:
[1] = Decomposition in differential thermal analysis (2% weight loss, atmosphere: air); format: physicochemical
Protocol: A mixture of 5 g of terephthalic acid and 3.9 g of aluminum trisdiethylphosphinate is reacted for 0.5 h at 350° C., as in example 1.

[2] = under nitrogen; cited from earlier work

Row | Molecule | Decomposition in differential thermal analysis (2% weight loss) [1] | Evaporation temperature [2]
1 | CCP(=O)([O-])CC.O=C([O-])c1ccc(C(=O)[O-])cc1.[Al+3] [Example 4, aluminum mono(diethylphosphinate)terephthalate] | 425 °C | 
2 | CC(C)CP(=O)([O-])CC(C)C.CC(C)CP(=O)([O-])CC(C)C.CC(C)CP(=O)([O-])CC(C)C.[Al+3] [aluminum salt of diisobutylphosphinic acid] |  | 300 to 400 °C
3 | aluminum trisdiethylphosphinate | 355 °C | 400 to 500 °C
4 | aluminum terephthalate | 298 °C | 
